Patent US12595246B2, “Crystalline and amorphous forms of N-(5-((4-ethylpiperazin-1-yl)methyl)pyridine-2-yl)-5-fluoro-4-(3-isopropyl-2-methyl-2H-indazol-5-yl)pyrimidin-2-amine and its salts, and preparation methods and therapeutic uses thereof” (BETA PHARMA, INC., priority 2019, dated 2026)

Assay: Dynamic vapor sorption (DVS) isotherm analysis, with XRPD before and after DVS
Type: physicochemical
Details: for change of crystalline form after DVS (XRPD): XRPD before and after DVS; for hygroscopicity rating by DVS isotherm analysis: rating in words, based on uptake at 80% RH

Structure (SMILES) | change of crystalline form after DVS (XRPD) | hygroscopicity by DVS isotherm analysis (uptake at 80% RH) [%] | hygroscopicity rating by DVS isotherm analysis
CCN1CCN(Cc2ccc(Nc3ncc(F)c(-c4cc(F)c5nc(C)n(C(C)C)c5c4)n3)nc2)CC1.Cc1ccc(S(=O)(=O)O)cc1 | no change of crystalline form | 1.67 | slightly hygroscopic
CCN1CCN(Cc2ccc(Nc3ncc(F)c(-c4cc(F)c5nc(C)n(C(C)C)c5c4)n3)nc2)CC1.O=S(=O)(O)O [Compound 1⋅H2SO4 (1:1; Form A)] | some change of crystalline form | 26.42 | very hygroscopic
CCN1CCN(Cc2ccc(Nc3ncc(F)c(-c4ccc5nn(C)c(C(C)C)c5c4)n3)nc2)CC1 [freebase of 1 (Form D)] | no change of crystalline form | 5.13 | hygroscopic

Second part, the compound after the results:

change of crystalline form after DVS (XRPD) | hygroscopicity by DVS isotherm analysis (uptake at 80% RH) [%] | hygroscopicity rating by DVS isotherm analysis | Structure (SMILES)
no change of crystalline form | 3.64 | hygroscopic | CCN1CCN(Cc2ccc(Nc3ncc(F)c(-c4cc(F)c5nc(C)n(C(C)C)c5c4)n3)nc2)CC1.Cl [1⋅HCl (1:1; Form A)]
some change of crystalline form | 3.16 | hygroscopic | CCN1CCN(Cc2ccc(Nc3ncc(F)c(-c4cc(F)c5nc(C)n(C(C)C)c5c4)n3)nc2)CC1.O=P(O)(O)O [Compound 1⋅H3PO4 (1:1)]
